Measurements published in PMC11855478, “Bicyclic N,S-Acetals Containing Fused Cysteine-Amide System as New Heterocyclic Class Targeting Human Farnesyltransferase (FTase-h)” (International Journal of Molecular Sciences, 2025).

Assays:
MCF7 (Breast Cancer) = assay: NCI one dose, MCF7; assay type: cell-based, human; conditions: MCF7, 1.00E-5 Molar one dose
Procedure, shortened: (§1)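 NCI60 human tumour panel; 48 h drug exposure; SRB read-out.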

T-47D (Breast Cancer) = assay: NCI one dose, T-47D; assay type: cell-based, human; conditions: 1.00E-5 Molar one dose
Experimental: (§2) 3.4. Cell Proliferation Assay
(§3) Selected compounds were tested on a panel of 60 human cancer cell lines at the National Cancer Institute (NCI), Germantown, MD, USA. The cytotoxicity studies were conducted using a 48 h exposure protocol using the sulfo-rhodamine B assay.

[1] = tested on: panel of 60 human cancer cell lines; assay: NCI 60 cell panel one dose screen (whole panel); assay type: cell-based; design: Delta (One Dose Mean Graph): unit not given here; conditions: 1.00E-5 Molar one dose; for Range (One Dose Mean Graph): in % (unit assumed); for Mean Growth Percent: mean over tested cell lines
Procedure, shortened: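 Sulforhodamine B read-out after 48 h treatment at one high dose (10 µM), run on the full 60-line NCI human tumour cell panel.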

OVCAR-8 (Ovarian Cancer) = assay: NCI one dose, OVCAR-8; assay type: cell-based, human; conditions: OVCAR-8, 1.00E-5 Molar one dose
Procedure, shortened: as §1

SK-OV-3 (Ovarian Cancer) = assay: NCI one dose, SK-OV-3; assay type: cell-based, human; conditions: SK-OV-3, 1.00E-5 Molar one dose
Procedure, shortened: as §1

[2] = tested on: NCI-H322M (Non-Small Cell Lung Cancer); assay: NCI one dose, NCI-H322M; assay type: cell-based, human; conditions: 1.00E-5 Molar one dose
Procedure, shortened: as §1

[3] = tested on: HOP-62 (Non-Small Cell Lung Cancer); assay: NCI one dose, HOP-62; assay type: cell-based, human; conditions: HOP-62, 1.00E-5 Molar one dose
Procedure, shortened: as §1

SNB-19 (CNS Cancer) = assay: NCI one dose, SNB-19; assay type: cell-based, human; conditions: SNB-19, 1.00E-5 Molar one dose
Procedure, shortened: as §1

TK-10 (Renal Cancer) = assay: NCI one dose, TK-10; assay type: cell-based, human; conditions: TK-10, 1.00E-5 Molar one dose
Procedure, shortened: as §1

OVCAR-4 (Ovarian Cancer) = assay: NCI one dose, OVCAR-4; assay type: cell-based, human; conditions: OVCAR-4, 1.00E-5 Molar one dose
Procedure, shortened: as §1

U251 (CNS Cancer) = assay: NCI one dose, U251; assay type: cell-based, human; conditions: U251, 1.00E-5 Molar one dose
Procedure, shortened: as §1

SF-268 (CNS Cancer) = assay: NCI one dose, SF-268; assay type: cell-based, human; conditions: SF-268, 1.00E-5 Molar one dose
Procedure, shortened: as §1

UACC-62 (Melanoma) = assay: NCI one dose, UACC-62; assay type: cell-based, human; conditions: UACC-62, 1.00E-5 Molar one dose
Procedure, shortened: as §1

[4] = tested on: MDA-MB-468 breast cancer cells; assay: NCI one dose, MDA-MB-468; assay type: cell-based, human; conditions: MDA-MB-468, 1.00E-5 Molar one dose
Procedure, shortened: as §1

RXF 393 (Renal Cancer) = assay: NCI one dose, RXF 393; assay type: cell-based, human; conditions: RXF 393, 1.00E-5 Molar one dose
Procedure, shortened: as §1

UACC-257 melanoma cells = assay: NCI one dose, UACC-257; assay type: cell-based, human; conditions: UACC-257, 1.00E-5 Molar one dose
Procedure, shortened: as §1

SF-295 (CNS Cancer) = assay: NCI one dose, SF-295; assay type: cell-based, human; conditions: SF-295, 1.00E-5 Molar one dose
Procedure, shortened: as §1

SNB-75 (CNS Cancer) = assay: NCI one dose, SNB-75; assay type: cell-based, human; conditions: SNB-75, 1.00E-5 Molar one dose
Procedure, shortened: as §1

[5] = tested on: EKVX (Non-Small Cell Lung Cancer); assay: NCI one dose, EKVX; assay type: cell-based, human; conditions: 1.00E-5 Molar one dose
Procedure, shortened: as §1

BT-549 (Breast Cancer) = assay: NCI one dose, BT-549; assay type: cell-based, human; conditions: BT-549, 1.00E-5 Molar one dose
Procedure, shortened: as §1

LOX IMVI (Melanoma) = assay: NCI one dose, LOX IMVI; assay type: cell-based, human; conditions: 1.00E-5 Molar one dose
Procedure, shortened: as §1

HCT-15 (Colon Cancer) = assay: NCI one dose, HCT-15; assay type: cell-based, human; conditions: HCT-15, 1.00E-5 Molar one dose
Procedure, shortened: as §1

[6] = tested on: MDA-MB-231/ATCC (Breast Cancer); assay: NCI one dose, MDA-MB-231/ATCC; assay type: cell-based, human; conditions: 1.00E-5 Molar one dose
Procedure, shortened: as §1

SK-MEL-5 (Melanoma) = assay: NCI one dose, SK-MEL-5; assay type: cell-based, human; conditions: SK-MEL-5, 1.00E-5 Molar one dose
Procedure, shortened: as §1

MOLT-4 (Leukemia) = assay: NCI one dose, MOLT-4; assay type: cell-based, human; conditions: MOLT-4, 1.00E-5 Molar one dose
Procedure, shortened: as §1

HS 578T (Breast Cancer) = assay: NCI one dose, HS 578T; assay type: cell-based, human; conditions: 1.00E-5 Molar one dose
Procedure, shortened: as §1

[7] = tested on: NCI-H460 (Non-Small Cell Lung Cancer); assay: NCI one dose, NCI-H460; assay type: cell-based, human; conditions: NCI-H460, 1.00E-5 Molar one dose
Experimental: as §2, §3

CAKI-1 (Renal Cancer) = assay: NCI one dose, CAKI-1; assay type: cell-based, human; conditions: CAKI-1, 1.00E-5 Molar one dose
Procedure, shortened: as §1

MDA-MB-435 (Melanoma) = assay: NCI one dose, MDA-MB-435; assay type: cell-based, human; conditions: MDA-MB-435, 1.00E-5 Molar one dose
Procedure, shortened: as §1

SR (Leukemia) = assay: NCI one dose, SR; assay type: cell-based, human; conditions: 1.00E-5 Molar one dose
Experimental: as §2, §3

SF-539 (CNS Cancer) = assay: NCI one dose, SF-539; assay type: cell-based, human; conditions: SF-539, 1.00E-5 Molar one dose
Procedure, shortened: as §1

| SMILES | Growth Percent (MCF7 (Breast Cancer)) | Growth Percent (T-47D (Breast Cancer)) | Delta (One Dose Mean Graph) [1] | Range (One Dose Mean Graph) [1] | Mean Growth Percent [1] | Growth Percent (OVCAR-8 (Ovarian Cancer)) | Growth Percent (SK-OV-3 (Ovarian Cancer)) | Growth Percent [2] | Growth Percent [3] | Growth Percent (SNB-19 (CNS Cancer)) | Growth Percent (TK-10 (Renal Cancer)) | Growth Percent (OVCAR-4 (Ovarian Cancer)) | Growth Percent (U251 (CNS Cancer)) | Growth Percent (SF-268 (CNS Cancer)) | Growth Percent (UACC-62 (Melanoma)) | Growth Percent [4] | Growth Percent (RXF 393 (Renal Cancer)) | Growth Percent (UACC-257 melanoma cells) | Growth Percent (SF-295 (CNS Cancer)) | Growth Percent (SNB-75 (CNS Cancer)) | other results |
| --- | --- | --- | --- | --- | --- | --- | --- | --- | --- | --- | --- | --- | --- | --- | --- | --- | --- | --- | --- | --- | --- |
| COc1ccc(CNC(=O)[C@@H]2CS[C@H]3c4ccccc4C(=O)N23)cc1OC [4aI] | 99.04% | 85.94% | 34.91 | 52.35 | 98.56% | 88.68% | 104.05% | 101.37% | 98.51% | 104.62% | 87.34% | 111.31% | 93.84% | 104.77% | 98.01% | 102.27% | 110.33% | 75.20% | 101.16% | 95.63% | Growth Percent [5]: 114.59%; Growth Percent (BT-549 (Breast Cancer)): 108.27%; Growth Percent (LOX IMVI (Melanoma)): 99.42%; Growth Percent (HCT-15 (Colon Cancer)): 109.55%; Growth Percent [6]: 102.55%; Growth Percent (SK-MEL-5 (Melanoma)): 102.31%; Growth Percent (MOLT-4 (Leukemia)): 99.18%; Growth Percent (HS 578T (Breast Cancer)): 98.06%; Growth Percent [7]: 111.19%; Growth Percent (CAKI-1 (Renal Cancer)): 95.39%; Growth Percent (MDA-MB-435 (Melanoma)): 107.42%; Growth Percent (SR (Leukemia)): 74.16%; Growth Percent (SF-539 (CNS Cancer)): 102.96% |
| C[C@@]12SC[C@@H](C(=O)NCc3ccccc3Br)N1C(=O)c1ccccc12 [4bB] | 87.26% | 83.93% | 17.49 | 36.16 | 93.03% | 92.33% | 88.35% | 99.70% | 99.61% | 100.80% | 99.69% | 80.04% | 91.25% | 96.91% | 82.12% | 88.64% | 96.88% | 75.54% | 92.26% | 92.47% | Growth Percent [5]: 106.14%; Growth Percent (BT-549 (Breast Cancer)): 107.51%; Growth Percent (LOX IMVI (Melanoma)): 97.04%; Growth Percent (HCT-15 (Colon Cancer)): 95.65%; Growth Percent [6]: 97.39%; Growth Percent (SK-MEL-5 (Melanoma)): 90.98%; Growth Percent (MOLT-4 (Leukemia)): 82.96%; Growth Percent (HS 578T (Breast Cancer)): 91.10%; Growth Percent [7]: 103.30%; Growth Percent (CAKI-1 (Renal Cancer)): 79.18%; Growth Percent (MDA-MB-435 (Melanoma)): 96.92%; Growth Percent (SR (Leukemia)): 80.60%; Growth Percent (SF-539 (CNS Cancer)): 90.78% |
| C[C@@]12SC[C@@H](C(=O)NCc3ccc(Cl)cc3Cl)N1C(=O)c1ccccc12 [4bH] | 89.35% | 79.65% | 23.83 | 40.77 | 95.56% | 93.06% | 99.25% | 92.74% | 103.25% | 100.91% | 105.53% | 93.22% | 90.46% | 99.59% | 81.85% | 88.80% | 102.82% | 79.49% | 98.60% | 99.75% | Growth Percent [5]: 112.50%; Growth Percent (BT-549 (Breast Cancer)): 107.71%; Growth Percent (LOX IMVI (Melanoma)): 101.94%; Growth Percent (HCT-15 (Colon Cancer)): 105.31%; Growth Percent [6]: 99.81%; Growth Percent (SK-MEL-5 (Melanoma)): 92.84%; Growth Percent (MOLT-4 (Leukemia)): 83.18%; Growth Percent (HS 578T (Breast Cancer)): 91.90%; Growth Percent [7]: 104.39%; Growth Percent (CAKI-1 (Renal Cancer)): 86.12%; Growth Percent (MDA-MB-435 (Melanoma)): 102.36%; Growth Percent (SR (Leukemia)): 88.00%; Growth Percent (SF-539 (CNS Cancer)): 100.42% |
| C[C@@]12SC[C@@H](C(=O)NCc3ccccc3)N1C(=O)c1ccccc12 [4bA] | 96.64% | 90.12% | 22.99 | 45.00 | 97.89% | 90.77% | 102.08% | 96.63% | 100.09% | 100.20% | 85.29% | 102.82% | 92.28% | 109.78% | 97.03% | 99.04% | 108.00% | 79.51% | 98.04% | 88.09% | Growth Percent [5]: 104.65%; Growth Percent (BT-549 (Breast Cancer)): 106.90%; Growth Percent (LOX IMVI (Melanoma)): 101.57%; Growth Percent (HCT-15 (Colon Cancer)): 98.84%; Growth Percent [6]: 99.53%; Growth Percent (SK-MEL-5 (Melanoma)): 102.19%; Growth Percent (MOLT-4 (Leukemia)): 93.49%; Growth Percent (HS 578T (Breast Cancer)): 100.47%; Growth Percent [7]: 111.12%; Growth Percent (CAKI-1 (Renal Cancer)): 89.87%; Growth Percent (MDA-MB-435 (Melanoma)): 101.35%; Growth Percent (SR (Leukemia)): 78.43%; Growth Percent (SF-539 (CNS Cancer)): 95.44% |
